Columns and labels:
DU-145 = test: Cytotoxicity against human DU145 cells after 72 hrs by XTT assay; assay type: functional, cell-based; details: DU-145, 72 h
HepG2 = test: Cytotoxicity against human HepG2 cells after 72 hrs by XTT assay; assay type: functional, cell-based; details: HepG2, 72 h

Row | SMILES | IC50 (DU-145) [µM] | IC50 (HepG2) [µM]
1 | Clc1ccc(/C=N/Nc2nc(-c3ccccc3)c[se]2)cc1 | 54.2 | 42.5
2 | COc1ccc(/C=N/N(C(C)=O)c2nc(C)c[se]2)cc1 | > 74.4 | > 74.4
3 | CC(=O)N(/N=C/c1ccc(Cl)cc1)c1nc(C)c[se]1 | 60.6 | 59.2
4 | CC(=O)N(C(=O)c1ccccc1)N(C(C)=O)c1nc(-c2ccccc2)c[se]1 | > 58.6 | > 58.6
5 | CC(=O)N(/N=C/c1csc(-c2ccccc2)n1)c1nc(CCl)c[se]1 | 19.6 | 19.3
6 | CC(=O)c1[se]c(N/N=C/c2csc(-c3ccccc3)n2)nc1C | 49.9 | 61.3
7 | COc1ccc(/C=N/Nc2nc(-c3ccccc3)c[se]2)cc1 | 50.9 | 50.5
8 | CCOC(=O)c1[se]c(N/N=C/c2ccc(Cl)cc2)nc1C | 47.7 | 52.8
9 | ClCc1c[se]c(N/N=C/c2csc(-c3ccccc3)n2)n1 | 16.4 | 18.8
10 | CC(=O)c1[se]c(N(/N=C/c2csc(-c3ccccc3)n2)C(C)=O)nc1C | 31.3 | 29.4
11 | O=C(NNc1nc(-c2ccccc2)c[se]1)c1ccccc1 | > 73 | > 73
12 | ClCc1c[se]c(N/N=C/c2ccc(Cl)cc2)n1 | > 75.1 | > 75.1
13 | COc1ccc(/C=N/N(C(C)=O)c2nc(-c3ccccc3)c[se]2)cc1 | > 62.8 | > 62.8
14 | NC(=[Se])NNC(=O)c1ccc(Cl)cc1 | 7.59 | 10.7
15 | CC(=O)N(/N=C/c1ccc(Cl)cc1)c1nc(-c2ccccc2)c[se]1 | > 62.1 | > 62.1
16 | NC(=[Se])N/N=C/c1csc(-c2ccccc2)n1 | 6.14 | 9.18

Row | SMILES | IC50 (DU-145) [µM] | IC50 (HepG2) [µM]
17 | CC(=O)N(/N=C/c1ccc(Cl)cc1)c1nc(CCl)c[se]1 | 64.7 | > 66.7
18 | COc1cccc2c1C(=O)c1c(O)c3c(c(O)c1C2=O)C[C@@](O)(C(=O)CO)C[C@@H]3O[C@H]1C[C@H](N)[C@H](O)[C@H](C)O1 [DOXORUBICIN] | 3.27 | 4.89
19 | COc1ccc(/C=N/Nc2nc(C)c[se]2)cc1 | > 85 | 83.2
20 | CC(=O)N(C(=O)c1ccc(Cl)cc1)N(C(C)=O)c1nc(-c2ccccc2)c[se]1 | > 54.3 | > 54.3
21 | COc1ccc(/C=N/NC(N)=[Se])cc1 | 30.3 | 11.3
22 | NC(=[Se])N/N=C/c1ccccc1 [BENZYLIDEN-SELENOSEMICARBAZIDE] | 40.8 | 39.1
23 | CC(=O)N(C(=O)c1ccc(Cl)cc1)N(C(C)=O)c1nc(C)c[se]1 | > 62.7 | > 62.7
24 | CC(=O)N(C(=O)c1ccccc1)N(C(C)=O)c1nc(C)c[se]1 | > 68.6 | > 68.6
25 | NC(=[Se])N/N=C/c1ccc(Cl)cc1 | 8.63 | 13
26 | CCOC(=O)c1[se]c(N(/N=C/c2ccc(Cl)cc2)C(C)=O)nc1C | > 60.6 | 55.1
27 | Cc1c[se]c(N/N=C/c2ccc(Cl)cc2)n1 | 49.4 | 56.5
28 | O=C(NNc1nc(-c2ccccc2)c[se]1)c1ccc(Cl)cc1 | 65.1 | 62.9
29 | Cc1c[se]c(NNC(=O)c2ccccc2)n1 | > 89.2 | > 89.2
30 | Cc1c[se]c(NNC(=O)c2ccc(Cl)cc2)n1 | > 79.5 | > 79.5
31 | NC(=[Se])NNC(=O)c1ccccc1 [BENZOYL-SELENOSEMICARBAZIDE] | 35.1 | 34.8

— ChEMBL document CHEMBL3045567, “Heterocycles 23: Synthesis, characterization and anticancer activity of new hydrazinoselenazole derivatives” (Med Chem Res, 2013)
